In paper PMC8838585, “Development and Validation of a Novel HPLC Method to Analyse Metabolic Reaction Products Catalysed by the CYP3A2 Isoform: In Vitro Inhibition of CYP3A2 Enzyme Activity by Aspirin (Drugs Often Used Together in COVID-19 Treatment)” (Molecules, 2022):
Entries after “also recorded” stand apart in the source; their conditions may differ.

Tests used:
[1] = Solution stability of working standards at ambient temperature, intraday and interday, HPLC; type: physicochemical; conditions: for Solution stability: intraday and interday analysis
Protocol: Stability samples were analyzed in triplicate.
Experiments were performed in triplicate, and the results are summarized below in Table 8.

CYP3A2 = target: T1, CYP3A2 (Rattus norvegicus, UniProt P05183); assay: Inhibition of dexamethasone 6β-hydroxylation (CYP3A2 activity) by aspirin in rat liver microsomes, HPLC; type: in vitro ADME; conditions: for Clint: Vmax/Km; for Vmax: n = 3
T1 construct: tissue Merck; host or cells: pooled liver microsomes from male Sprague Dawley rats
T1 sequence (P05183 1-504): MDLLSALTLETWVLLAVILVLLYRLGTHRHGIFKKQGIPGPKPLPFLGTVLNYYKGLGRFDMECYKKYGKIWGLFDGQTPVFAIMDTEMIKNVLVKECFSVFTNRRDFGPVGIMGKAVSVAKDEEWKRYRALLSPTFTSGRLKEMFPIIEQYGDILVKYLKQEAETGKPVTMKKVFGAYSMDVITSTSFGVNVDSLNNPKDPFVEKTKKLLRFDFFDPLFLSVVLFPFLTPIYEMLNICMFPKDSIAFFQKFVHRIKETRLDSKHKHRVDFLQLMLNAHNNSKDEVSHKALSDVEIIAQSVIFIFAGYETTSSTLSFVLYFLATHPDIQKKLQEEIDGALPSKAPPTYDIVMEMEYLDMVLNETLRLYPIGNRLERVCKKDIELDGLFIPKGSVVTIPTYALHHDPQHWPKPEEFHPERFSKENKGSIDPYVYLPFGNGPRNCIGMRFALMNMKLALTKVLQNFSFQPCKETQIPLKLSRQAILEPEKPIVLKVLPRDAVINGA
Protocol: Assay development and validation were carried out using a LC-2010A HT Module HPLC system (Shimadzu, Toyko, Japan). […] The chromatographic separation was performed at 25 °C and at a flow rate of 0.6 mL/min. A 10 µL solution volume was injected for HPLC analysis, and all the components were detected at the 243 nm wavelength. Table 11 provides information concerning efficiency (N), where N = 5.54 × (tR/W½) and W½ = width at half peak height; plate height (H), where H(cm) = column length/N; asymmetry factor (AsF), where AsF = B/A, and A is the distance from the leading edge of the peak to the midpoint of the peak measured at 10% of peak height, and B is the distance from the midpoint of the peak to the trailing edge of the peak measured at 10% of the peak height; and resolution (Rs), where Rs = 2∆tR/0.5(W1 + W2), and W is the width at the peak base.
Ice-cold-grade acetonitrile containing 15 µM 4-hydroxyoctanophenone (as an internal standard) was added to terminate the reaction. […] The polar extracts were evaporated to dryness, and the residues were dissolved in the mobile phase (70% acetonitrile and 30% water, v/v) and made up to 1000 µL in volume. An amount of 10 µL of each sample was injected into the HPLC instrument for analysis.
Data were analysed using Microsoft Excel 2010 software for validation and the kinetic parameters. All results are shown as mean ± S.D. The least-square regression analysis was performed to calculate the concentration of the metabolite produced by the CYP reaction. Secondary Lineweaver–Burk plots and Michaelis–Menten plots were plotted to find kinetic parameters such as Ki, Vmax, Km, Clint, and α^,. Inhibition was assumed to be competitive based on the obtained data and based on a visual inspection of the Lineweaver–Burk plot. […] Km values were used to calculate the percentage of inhibition.

[2] = substrate: C[C@@H]1C[C@H]2[C@@H]3CCC4=CC(=O)C=C[C@]4(C)[C@@]3(F)[C@@H](O)C[C@]2(C)[C@@]1(O)C(=O)CO; assay: cells, lysate or membranes named; conditions: other: 0 µM aspirin (no inhibitor), rat liver microsomes 0.5 mg/mL, n = 3; pH 7.4; 37.0 °C
Protocol: Data were analysed using Microsoft Excel 2010 software for validation and the kinetic parameters. All results are shown as mean ± S.D. The least-square regression analysis was performed to calculate the concentration of the metabolite produced by the CYP reaction. Secondary Lineweaver–Burk plots and Michaelis–Menten plots were plotted to find kinetic parameters such as Ki, Vmax, Km, Clint, and α^,. […] Km values were used to calculate the percentage of inhibition.

[3] = male, rat, liver microsomes, pH 7.4, probe dexamethasone (6β-hydroxylation), 10, 20, 30, 40 and 50 µM

C[C@@H]1C[C@H]2[C@@H]3C[C@@H](O)C4=CC(=O)C=C[C@]4(C)[C@@]3(F)[C@@H](O)C[C@]2(C)[C@@]1(O)C(=O)CO [6β-hydroxydexamethasone, 6β-Hydroxydexamethasone]
% Recovery ([1]; Interday 1, 0.3 µM): 89.49% | % Recovery ([1]; Interday 1, 0.5 µM): 92.64% | % Recovery ([1]; Interday 1, 0.85 µM): 84.06% | % Recovery ([1]; Interday 2, 0.3 µM): 105.46% | % Recovery ([1]; Interday 2, 0.5 µM): 94.15% | % Recovery ([1]; Interday 2, 0.85 µM): 81.57% | % Recovery ([1]; Interday 3, 0.3 µM): 106.90% | % Recovery ([1]; Interday 3, 0.5 µM): 92.10% | % Recovery ([1]; Interday 3, 0.85 µM): 80.51% | % Recovery ([1]; intraday 0 h, 0.3 µM): 98.18% | % Recovery ([1]; intraday 0 h, 0.5 µM): 94.82% | % Recovery ([1]; intraday 0 h, 0.85 µM): 99.34% | % Recovery ([1]; intraday 5 h, 0.3 µM): 97.22% | % Recovery ([1]; intraday 5 h, 0.5 µM): 87.58% | % Recovery ([1]; intraday 5 h, 0.85 µM): 90.45% | % Recovery ([1]; intraday 10 h, 0.3 µM): 88.89% | % Recovery ([1]; intraday 10 h, 0.5 µM): 87.75% | % Recovery ([1]; intraday 10 h, 0.85 µM): 92.98% | Solution stability [1]: stable

CC(=O)Oc1ccccc1C(=O)O [Aspirin, acetylsalicylic acid]
IC50 (CYP3A2): 191 µM | á (CYP3A2; 50 µM aspirin): 1.03 ± 0.01 | á (CYP3A2; 100 µM aspirin): 1.02 ± 0.06 | á (CYP3A2; 200 µM aspirin): 1.04 ± 0.01 | Mode of inhibition of CYP3A2 (CYP3A2; Lineweaver-Burk plot, rat liver microsomes): competitively inhibits; also recorded: competitive inhibitor | Clint (CYP3A2; with 50 µM aspirin): 0.0005 ± 4.00 × 10^−6 µM^−2∙min^−1 | Clint (CYP3A2; with 100 µM aspirin): 0.0005 ± 5.00 × 10^−5 µM^−2∙min^−1 | Clint (CYP3A2; with 200 µM aspirin): 0.0004 ± 1.00 × 10^−5 µM^−2∙min^−1 | Alpha prime (α') values (CYP3A2; aspirin 50, 100 and 200 µM): greater than 1.0 | inhibition at 40 min, 50 µM (CYP3A2; [3]): 12.4 ± 1.2% | inhibition at 40 min, 100 µM (CYP3A2; [3]): 23.3 ± 3.3% | inhibition at 40 min, 200 µM (CYP3A2; [3]): 53.6 ± 1.76% | Ki (CYP3A2; read-out: Ki (inhibition constant)): 95.5 µM | Strength of inhibition of CYP3A2 isoform activity (CYP3A2; weak if IC50 more than 50 µM): weak inhibitory effect | Vmax (CYP3A2; with 50 µM aspirin): 0.0123 ± 1.15 × 10^−4 µM^−1∙min^−1 | Vmax (CYP3A2; with 100 µM aspirin): 0.0127 ± 7.94 × 10^−4 µM^−1∙min^−1 | Vmax (CYP3A2; with 200 µM aspirin): 0.0123 ± 1.73 × 10^−4 µM^−1∙min^−1

C[C@@H]1C[C@H]2[C@@H]3CCC4=CC(=O)C=C[C@]4(C)[C@@]3(F)[C@@H](O)C[C@]2(C)[C@@]1(O)C(=O)CO [Dexamethasone]
% Recovery ([1]; Interday 1, 40 µM): 80.04% | % Recovery ([1]; Interday 1, 110 µM): 85.81% | % Recovery ([1]; Interday 1, 185 µM): 98.26% | % Recovery ([1]; Interday 2, 40 µM): 87.31% | % Recovery ([1]; Interday 2, 110 µM): 91.30% | % Recovery ([1]; Interday 2, 185 µM): 104.78% | % Recovery ([1]; Interday 3, 40 µM): 85.29% | % Recovery ([1]; Interday 3, 110 µM): 82.36% | % Recovery ([1]; Interday 3, 185 µM): 101.20% | % Recovery ([1]; intraday 0 h, 40 µM): 88.51% | % Recovery ([1]; intraday 0 h, 110 µM): 80.58% | % Recovery ([1]; intraday 0 h, 185 µM): 95.66% | % Recovery ([1]; intraday 5 h, 40 µM): 80.50% | % Recovery ([1]; intraday 5 h, 110 µM): 84.03% | % Recovery ([1]; intraday 5 h, 185 µM): 109.49% | % Recovery ([1]; intraday 10 h, 40 µM): 80.80% | % Recovery ([1]; intraday 10 h, 110 µM): 84.43% | % Recovery ([1]; intraday 10 h, 185 µM): 110.03% | Solution stability [1]: stable for up to three days

B1: CYP3A2 (Rattus norvegicus) (protein)
chain: MDLLSALTLETWVLLAVILVLLYRLGTHRHGIFKKQGIPGPKPLPFLGTVLNYYKGLGRFDMECYKKYGKIWGLFDGQTPVFAIMDTEMIKNVLVKECFSVFTNRRDFGPVGIMGKAVSVAKDEEWKRYRALLSPTFTSGRLKEMFPIIEQYGDILVKYLKQEAETGKPVTMKKVFGAYSMDVITSTSFGVNVDSLNNPKDPFVEKTKKLLRFDFFDPLFLSVVLFPFLTPIYEMLNICMFPKDSIAFFQKFVHRIKETRLDSKHKHRVDFLQLMLNAHNNSKDEVSHKALSDVEIIAQSVIFIFAGYETTSSTLSFVLYFLATHPDIQKKLQEEIDGALPSKAPPTYDIVMEMEYLDMVLNETLRLYPIGNRLERVCKKDIELDGLFIPKGSVVTIPTYALHHDPQHWPKPEEFHPERFSKENKGSIDPYVYLPFGNGPRNCIGMRFALMNMKLALTKVLQNFSFQPCKETQIPLKLSRQAILEPEKPIVLKVLPRDAVINGA
Km [2]: 21.23 ± 0.51 µM
